Reference: patent publication US9156831B2, “Chemical compounds” (ASTRAZENECA AB, priority 2013, dated 2015)

Experiments:
HPAFII = assay: Cell proliferation assay (MTS); type: cell-based, human
Description: (§1) The sensitivity of a panel of human cancer cell lines to the effects of compounds was determined in a standard proliferation assay.
(§2) Cells were plated in 96 well plates at densities of 1000-6000 cells per well in RPMI media containing 10% FBS. After incubation at 37° C. for 16 hours, various concentrations of compound were added to the assay plates. After incubation for an additional 72 h, the viable cells were determined by the addition of MTS reagent (Promega #3582) to each well for 2 h. MTS is a tetrazolium salt that is bioreduced by metabolically active cells in the presence of an electron coupling reagent to formazan. The formazan product was then quantitated by absorbance at 490 nm, as an indicator of the relative number of live cells. In order to determine the GI50 (concentration at which growth of cells was inhibited by 50%) the relative number of cells present at the time of drug addition was determined by comparison with the MTS readout before the drug was added, and this value was subtracted from the 72 hr value of untreated cells as a measure of cell growth during the assay.

SNU398 = assay: Cell proliferation assay (MTS); type: cell-based, human
Description: as §1
(§3) Cells were plated in 96 well plates at densities of 1000-6000 cells per well in RPMI media containing 10% FBS. After incubation at 37° C. for 16 hours, various concentrations of compound were added to the assay plates. After incubation for an additional 72 h, the viable cells were determined by the addition of MTS reagent (Promega #3582) to each well for 2 h. […] The formazan product was then quantitated by absorbance at 490 nm, as an indicator of the relative number of live cells. In order to determine the GI50 (concentration at which growth of cells was inhibited by 50%) the relative number of cells present at the time of drug addition was determined by comparison with the MTS readout before the drug was added, and this value was subtracted from the 72 hr value of untreated cells as a measure of cell growth during the assay.

H2291 = assay: Cell proliferation assay (MTS); type: cell-based, human
Description: (§4) The sensitivity of a panel of human cancer cell lines to the effects of compounds was determined in a standard proliferation assay. Cell lines were sourced through the AstraZeneca Cell Bank.
as §2

CALU3 = assay: Cell proliferation assay (MTS); type: cell-based, human
Description: as §4, §3

SU8686 = assay: Cell proliferation assay (MTS); type: cell-based, human
Description: as §1, §3

HUH7 = assay: Cell proliferation assay (MTS); type: cell-based, human
Description: as §1, §2

SKMES1 = assay: Cell proliferation assay (MTS); type: cell-based, human
Description: as §1, §2

SNU878 = assay: Cell proliferation assay (MTS); type: cell-based, human
Description: as §1, §2

HCC70 xenograft = assay: Tumour growth inhibition, HCC70 xenograft model; type: in vivo, mouse; conditions: Example 3 alone 25 mg/kg BID every day; FIG. 13
Description: HCC70 is breast tumour cell line which is deficient in PTEN gene expression. Female Swiss athymic nude mice (swiss nu/nu—AZUK) were transplanted subcutaneously with the breast ductal epithelial tumour cell line HCC70 (ATCC—CRL2315) cells. 1×10^6 cells in 50% matrigel (BD Bioscience) were injected s.c. on the left flank of the animals.
Animals were randomised into groups of 10-15 when tumours reached a volume of ˜200-300 mm^3 and treatment commenced. Animals were dosed for 3-4 weeks by peroral route, with compound in a suitable vehicle at defined doses and schedules. Tumours were measured two-three times weekly by caliper and volume of tumours calculated using elliptical formula (pi/6×width×width×length).

MOLP8 = assay: Cell proliferation assay (MTS); type: cell-based, human
Description: as §4, §2

MKN1 = assay: Cell proliferation assay (MTS); type: cell-based, human
Description: as §1, §2

CMK = assay: Cell proliferation assay (MTS); type: cell-based, human
Description: as §1, §2

OVCAR3 = assay: Cell proliferation assay (MTS); type: cell-based, human
Description: as §1, §2

MOLM13 = assay: Cell proliferation assay (MTS); type: cell-based, human
Description: as §1, §2

MOLM16 = assay: Cell proliferation assay (MTS); type: cell-based, human
Description: as §1, §2

CC20 = assay: Cell proliferation assay (MTS); type: cell-based, human
Description: as §1, §2

SNU5 = assay: Cell proliferation assay (MTS); type: cell-based, human
Description: as §1, §3

SUM52PE = assay: Cell proliferation assay (MTS); type: cell-based, human
Description: as §1, §2

PANC0403 = assay: Cell proliferation assay (MTS); type: cell-based, human
Description: as §1, §2

SNU761 = assay: Cell proliferation assay (MTS); type: cell-based, human
Description: as §1, §2

HCT8 = assay: Cell proliferation assay (MTS); type: cell-based, human
Description: as §4, §2

A2058 = assay: Cell proliferation assay (MTS); type: cell-based, human
Description: as §1, §2

KATOIII = assay: Cell proliferation assay (MTS); type: cell-based, human
Description: as §1, §3

NUGC3 = assay: Cell proliferation assay (MTS); type: cell-based, human
Description: as §4, §2

HT1197 = assay: Cell proliferation assay (MTS); type: cell-based, human
Description: as §1, §2

RERFLCAI = assay: Cell proliferation assay (MTS); type: cell-based, human
Description: as §1, §2

HCT15 = assay: Cell proliferation assay (MTS); type: cell-based, human
Description: as §1, §2

OE33 = assay: Cell proliferation assay (MTS); type: cell-based, human
Description: as §1, §3

DU145 = assay: Cell proliferation assay (MTS); type: cell-based, human
Description: as §1, §3

PANC0203 = assay: Cell proliferation assay (MTS); type: cell-based, human
Description: as §1, §3

HGC27 = assay: Cell proliferation assay (MTS); type: cell-based, human
Description: as §1, §2

J82 = assay: Cell proliferation assay (MTS); type: cell-based, human
Description: as §1, §3

SW48 = assay: Cell proliferation assay (MTS); type: cell-based, human
Description: as §4, §2

2313287 = assay: Cell proliferation assay (MTS); type: cell-based, human
Description: as §4, §3

MGHU3 = assay: Cell proliferation assay (MTS); type: cell-based, human
Description: as §4, §2

SCABER = assay: Cell proliferation assay (MTS); type: cell-based, human
Description: as §4, §2

SKHEP1 = assay: Cell proliferation assay (MTS); type: cell-based, human
Description: as §1, §3

HLF = assay: Cell proliferation assay (MTS); type: cell-based, human
Description: as §4, §2

KU1919 = assay: Cell proliferation assay (MTS); type: cell-based, human
Description: as §1, §2

[1] = Homo sapiens, Blood/lymph, PIK3CA WT
[2] = Homo sapiens, Bladder, PIK3CA MUT
[3] = Homo sapiens, Bladder, PIK3CA WT

`CCn1nc(C2CCN(C(=O)CCO)CC2)nc1-c1cnc(N)c(-c2nnc(C(C)(C)C)o2)n1` [Example 3, 1-(4-(5-(5-amino-6-(5-tert-butyl-1,3,4-oxadiazol-2-yl)pyrazin-2-yl)-1-ethyl-1H-1,2,4-triazol-3-yl)piperidin-1-yl)-3-hydroxypropan-1-one] was tested, and the Category (HPAFII) was “Resistant (resistant (GI50>1.0 μM))”, the GI50 (HPAFII; Homo sapiens, HPAF-II, Pancreas, PIK3CA WT) was 2630 nM and the Category (SNU398) was “Resistant (resistant (GI50>1.0 μM))”. The GI50 (SNU398; Homo sapiens, SNU-398, Liver, PIK3CA WT) was 30 µM, the Category (H2291) was “Resistant (resistant (GI50>1.0 μM))” and the GI50 (H2291; Homo sapiens, NCI-H2291, Lung, PIK3CA WT) was 3.29 µM. The Category (CALU3) was “Resistant (resistant (GI50>1.0 μM))”, the GI50 (CALU3; Homo sapiens, Calu-3, Lung, PIK3CA WT) was 1300 nM and the Category (SU8686) was “Resistant (resistant (GI50>1.0 μM))”. The GI50 (SU8686; Homo sapiens, SU.86.86, Pancreas, PIK3CA WT) was 18 µM, the Category (HUH7) was “Resistant (resistant (GI50>1.0 μM))” and the GI50 (HUH7; Homo sapiens, Huh-7, Liver, PIK3CA WT) was 16 µM. The Category (SKMES1) was “Resistant (resistant (GI50>1.0 μM))”, the GI50 (SKMES1; Homo sapiens, SK-MES-1, Lung, PIK3CA WT) was 19.5 µM and the Category (SNU878) was “Resistant (resistant (GI50>1.0 μM))”. The GI50 (SNU878; Homo sapiens, Liver, PIK3CA WT) was 16.1 µM, the tumour growth (HCC70 xenograft) was “inhibited growth more strongly” and the Category (MOLP8) was “Resistant (resistant (GI50>1.0 μM))”. For the same compound, the GI50 (MOLP8; Homo sapiens, MOLP-8, Blood/lymph, PIK3CA WT) was 3.29 µM, the Category (MKN1) was “Resistant (resistant (GI50>1.0 μM))” and the GI50 (MKN1; Homo sapiens, MKN-1, Stomach, PIK3CA MUT) was 1580 nM. For the same compound, the Category (CMK) was “Resistant (resistant (GI50>1.0 μM))”, the GI50 (CMK; [1]) was 28.9 µM and the Category (OVCAR3) was “Resistant (resistant (GI50>1.0 μM))”. The GI50 (OVCAR3; Homo sapiens, OVCAR-3, Ovary, PIK3CA WT) was 1180 nM, the Category (MOLM13) was “Resistant (resistant (GI50>1.0 μM))” and the GI50 (MOLM13; Homo sapiens, MOLM-13, Blood/lymph, PIK3CA WT) was 1220 nM. The Category (MOLM16) was “Resistant (resistant (GI50>1.0 μM))”, the GI50 (MOLM16; [1]) was 4.6 µM and the Category (CC20) was “Resistant (resistant (GI50>1.0 μM))”. For the same compound, the GI50 (CC20; Homo sapiens, Colon, PIK3CA WT) was 30 µM, the Category (SNU5) was “Resistant (resistant (GI50>1.0 μM))” and the GI50 (SNU5; Homo sapiens, SNU-5, Stomach, PIK3CA WT) was 21.2 µM. The Category (SUM52PE) was “Resistant (resistant (GI50>1.0 μM))”, the GI50 (SUM52PE; Homo sapiens, Breast, PIK3CA WT) was 1140 nM and the Category (PANC0403) was “Resistant (resistant (GI50>1.0 μM))”. For the same compound, the GI50 (PANC0403; Homo sapiens, Panc 04.03, Pancreas, PIK3CA WT) was 6.47 µM, the Category (SNU761) was “Resistant (resistant (GI50>1.0 μM))” and the GI50 (SNU761; Homo sapiens, Liver, PIK3CA WT) was 18.5 µM. For the same compound, the Category (HCT8) was “Resistant (resistant (GI50>1.0 μM))”, the GI50 (HCT8; Homo sapiens, HCT-8, Colon, PIK3CA MUT) was 2510 nM and the Category (A2058) was “Resistant (resistant (GI50>1.0 μM))”. For the same compound, the GI50 (A2058; Homo sapiens, Skin, PIK3CA WT) was 30 µM, the Category (KATOIII) was “Resistant (resistant (GI50>1.0 μM))” and the GI50 (KATOIII; Homo sapiens, KATO III, Stomach, PIK3CA WT) was 9.15 µM. For the same compound, the Category (NUGC3) was “Resistant (resistant (GI50>1.0 μM))”, the GI50 (NUGC3; Homo sapiens, NUGC-3, Stomach, PIK3CA WT) was 24.2 µM and the Category (HT1197) was “Resistant (resistant (GI50>1.0 μM))”. For the same compound, the GI50 (HT1197; [2]) was 2800 nM, the GI50 (RERFLCAI; Homo sapiens, Lung, PIK3CA WT) was 30 µM and the Category (RERFLCAI; RERFLCAI) was “Resistant (resistant (GI50>1.0 μM))”. For the same compound, the Category (HCT15) was “Resistant (resistant (GI50>1.0 μM))”, the GI50 (HCT15; Homo sapiens, HCT-15, Colon, PIK3CA MUT) was 7.27 µM and the Category (OE33) was “Resistant (resistant (GI50>1.0 μM))”. For the same compound, the GI50 (OE33; Homo sapiens, Esophagus, PIK3CA WT) was 9.86 µM, the Category (DU145) was “Resistant (resistant (GI50>1.0 μM))” and the GI50 (DU145; Homo sapiens, DU-145, Prostate, PIK3CA WT) was 8.24 µM. For the same compound, the Category (PANC0203) was “Sensitive (sensitive (GI50<=1.0 μM))”, the GI50 (PANC0203; Homo sapiens, Panc 02.03, Pancreas, PIK3CA WT) was 963 nM and the Category (HGC27) was “Resistant (resistant (GI50>1.0 μM))”. The GI50 (HGC27; Homo sapiens, HGC-27, Stomach, PIK3CA MUT) was 1500 nM, the Category (J82) was “Resistant (resistant (GI50>1.0 μM))” and the GI50 (J82; [2]) was 13.4 µM. The Category (SW48) was “Sensitive (sensitive (GI50<=1.0 μM))”, the GI50 (SW48; Homo sapiens, Colon, PIK3CA MUT) was 513 nM and the Category 2313287 was “Resistant (resistant (GI50>1.0 μM))”. The GI50 (2313287; Homo sapiens, Stomach, PIK3CA WT) was 1340 nM, the Category (MGHU3) was “Resistant (resistant (GI50>1.0 μM))” and the GI50 (MGHU3; [3]) was 11.5 µM. For the same compound, the Category (SCABER) was “Resistant (resistant (GI50>1.0 μM))”, the GI50 (SCABER; [3]) was 12.4 µM and the Category (SKHEP1) was “Resistant (resistant (GI50>1.0 μM))”. For the same compound, the GI50 (SKHEP1; Homo sapiens, SK-HEP1, Liver, PIK3CA WT) was 30 µM, the Category (HLF) was “Resistant (resistant (GI50>1.0 μM))” and the GI50 (HLF; Homo sapiens, Liver, PIK3CA WT) was 30 µM. For the same compound, the Category (KU1919) was “Resistant (resistant (GI50>1.0 μM))” and the GI50 (KU1919; Homo sapiens, KU-19-19, Bladder, PIK3CA WT) was 30 µM.
